Measured values taken from patent publication US20100119499A1, “STILBENE-BASED COMPOSITIONS AND METHODS OF USE THEREFOR” (priority 2009, published 2010).
Where two headings read alike, the source gives them in different places.

Key:
healthy, adult humans = experiment: oral pterostilbene in humans, whole blood glucose by finger prick glucometer; type: in vivo
Description: In work described herein using pterostilbene orally in humans (supplied by Chromadex, 10005 Muirlands Boulevard, Suite G, Irvine, Calif. 92618, USA) dosing of oral pterostilbene was initially started at a lower dose than the calculated HED, with the intent of titrating the dose up as needed.
The test subject was immediately treated with oral glucose and other carbohydrates and recovered without other incident. […] At oral dosing above 0.165 mg/kg (actual dose tested 20 mg) pterostilbene is capable of inducing profound hypoglycemia (e.g., whole blood glucose at or below 55 mg/dL) and the side effects associated with this condition. Accordingly, at the doses predicted by the FDA/CDER formula, oral administration of pterostilbene to humans would likely be fatal.

humans = experiment: oral pterostilbene combined with nutrients, athletic performance in humans; type: in vivo, human
Description: Additional work described herein addressed the effects of combining oral pterostilbene with various nutrients on athletic performance. Specifically, oral pterostilbene was administered with creatine supplements, and the effect of this combination was compared with the effect of creatine supplements alone.
The addition of exogenous dietary carbohydrates such as glucose, isolmaltulose, leucrose, trehalose, trehalulose, amylose, ribose, and maltodextrin to the creatine-containing supplement allowed for even higher pterostilbene dosing (up to 25 mg of oral pterostilbene) and produced an even more pronounced, immediate increase in athletic performance without the onset of hypoglycemia.
While not wishing to be bound by any particular theory, the inventors believe that pterostilbene increases or otherwise effects a change in the rate and quantity of the transfer of these nutrients from the blood plasma into the tissues and organs. Such dietary nutrients include, but are not limited to, creatine and its salts esters, amides and chelates, creatinol-O-phosphate, branched chain amino acids (leucine, isoleucine, valine) and their salts, esters, amides and chelates, branched chain keto-acids including, but not limited to ketoisocaproate and its salts, other ergogenic, performance-enhancing amino acids including, but not limited to, taurine, beta-alanine, arginine, ornithine, aspartic acid, glutamine, glutaric acid, agmatine, citrulline, norvaline, glycine, cysteine and their salts, ester, amides and chelates, performance enhancing dipeptides including, but not limited to, carnitine, anserine and carnosine and their salts and esters and proteins that are known to contain dipeptides such as whey or soy or egg protein isolates or concentrates or any combination of these non-carbohydrate based dietary nutrients.
Further, the addition and oral consumption of one or more exogenous dietary carbohydrates, including but not limited to rice oligodextrin, amylose, amylopectin, glucose, maltodextrin, maltose, isolmaltulose, leucrose, trehalulose, ribose, trehalose, and/or fructose in conjunction with pterostilbene and a non-carbohydrate based dietary nutrient or nutrients simultaneously further increases the athletic performance-enhancing effects of pterostilbene and the non-carbohydrate dietary nutrient(s) by up to 50% and also increases the tolerability of pterostilbene in humans by up to 50%.

[1] = ABAP-derived peroxyl radicals; cited from earlier work
normal human fibroblasts = settings: cited from earlier work
[2] = system: streptozotocin-induced hyperglycemic rats; settings: cited from earlier work
rats = settings: doses 10 mg/kg up to 40 mg/kg bodyweight; cited from earlier work
DPPH radical scavenging = settings: converted value in brackets
[3] = inhibition of citronellal thermo-oxidation; settings: converted value in brackets
[4] = total reactive antioxidant potential against ABAP-derived peroxyl radicals; settings: converted value in brackets
MAO leukemia cell line = settings: relative to cis-resveratrol; cited from earlier work
[5] = 5 mg oral (0.0486 mg/kg) added to creatine-containing liquid supplement vs supplement alone, one healthy person
[6] = pterostilbene plus non-carbohydrate nutrient(s) plus exogenous dietary carbohydrates, oral

## COc1cc(/C=C/c2ccc(O)cc2)cc(OC)c1 [pterostilbene, trans-3,5-dimethoxy-4′-hydroxystilbene]
healthy, adult humans; 30 mg oral single dose (about 0.248 mg/kg), one healthy person, within fifteen minutes
  drop of whole blood glucose level: about 50 mg/dL
healthy, adult humans; profound hypoglycemia e.g. whole blood glucose at or below 55 mg/dL, actual dose tested 20 mg
  oral dose above which profound hypoglycemia and its side effects are induced: above 0.165 mg/kg
humans; 3 mg to 20 mg added to a creatine-containing supplement
  effect on athletic performance: improves athletic performance dramatically
humans; [5]
  immediate increase in anaerobic work capacity: ~12%
  immediate increase in maximal exertion power: ~8%
humans; human, in vivo, po
  oral dose possible without the onset of hypoglycemia: up to 25 mg
humans; [6]
  further increase of athletic performance-enhancing effects by added carbohydrates: up to 50%
  increase of tolerability in humans by added carbohydrates: up to 50%
[1]
  total reactive antioxidant potential: 237 ± 58 mM
Normal human fibroblasts
  reduction of thiobarbituric acid reactive substances (TBARS) production: 61%
[2]
  lowering of blood glucose level: 42%
rats
  adverse effects: no adverse effects noted
DPPH radical scavenging
  EC50, scavenging of DPPH radicals: ~7.68 mg/mL
[3]
  EQ value, inhibition of cintronellal thermo-oxidation: ~90.9 mg/mL
[4]
  total reactive antioxidant potential: ~60.7 mg/mL

## Oc1ccc(/C=C/c2cc(O)cc(O)c2)cc1 [trans-reseveratrol]
MAO leukemia cell line
  ability to induce apoptosis compared to cis-resveratrol: ten times more potent
